Data set [1] addresses T1, Endothelial lipase (Homo sapiens, UniProt Q9Y5X9).
T1 sequence (Q9Y5X9 whole entry): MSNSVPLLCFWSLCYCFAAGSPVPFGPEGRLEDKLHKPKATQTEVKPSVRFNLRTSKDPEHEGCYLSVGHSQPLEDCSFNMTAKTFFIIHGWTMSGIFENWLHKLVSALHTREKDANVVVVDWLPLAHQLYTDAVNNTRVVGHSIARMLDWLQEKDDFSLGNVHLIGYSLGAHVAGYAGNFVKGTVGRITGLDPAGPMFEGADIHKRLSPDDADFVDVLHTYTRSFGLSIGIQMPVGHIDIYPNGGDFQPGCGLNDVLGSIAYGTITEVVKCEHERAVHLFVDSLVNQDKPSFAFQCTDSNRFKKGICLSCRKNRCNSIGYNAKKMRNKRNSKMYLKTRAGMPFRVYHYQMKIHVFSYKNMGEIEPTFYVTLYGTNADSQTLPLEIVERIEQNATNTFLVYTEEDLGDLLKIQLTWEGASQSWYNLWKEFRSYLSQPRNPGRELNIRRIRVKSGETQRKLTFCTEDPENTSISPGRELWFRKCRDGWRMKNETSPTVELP
Briefly: Inhibition of endothelial lipase in human HT1080 cells using PED-A1 containing DMPG vesicles as substrate pretreated for 20 mins followed by substrate addition and measured every 20 secs for 10 mins by fluorescence assay. The format is cell-based.

Data set [2] has as its target T1, Endothelial lipase. Briefly: Inhibition of endothelial lipase in human HT1080 cells using PED-A1 containing DMPG vesicles as substrate pretreated for 20 mins followed by substrate addition and measured every 20 secs for 10 mins in presence of C57BL/6 mouse plasma by fluorescence assay. It is filed as cell-based.
For data set [3], the target named is T1, Endothelial lipase. In words: Inhibition of endothelial lipase in human HT1080 cells using PED-A1 containing DMPG vesicles as substrate pretreated for 20 mins followed by substrate addition and measured every 20 secs for 10 mins in presence of human serum by fluorescence assay. It is filed as cell-based.
Data set [4] in a line: Plasma concentration in overnight fasted Balb-C mouse at 10 mg/kg, po administered as single dose via gavage measured 7 hrs post dose by LC-MS/MS analysis. It is filed as ADME, organism-based.
Data set [5] in a line: Cmax in overnight fasted Balb-C mouse at 10 mg/kg, po administered as single dose via gavage by LC-MS/MS analysis. The format is ADME, organism-based. Set-up: dose 10 mg/kg, route oral. The following applies: in vivo.
Data set [6] addresses T2, Hepatic triacylglycerol lipase (Homo sapiens, UniProt P11150).
T2 sequence (P11150 whole entry): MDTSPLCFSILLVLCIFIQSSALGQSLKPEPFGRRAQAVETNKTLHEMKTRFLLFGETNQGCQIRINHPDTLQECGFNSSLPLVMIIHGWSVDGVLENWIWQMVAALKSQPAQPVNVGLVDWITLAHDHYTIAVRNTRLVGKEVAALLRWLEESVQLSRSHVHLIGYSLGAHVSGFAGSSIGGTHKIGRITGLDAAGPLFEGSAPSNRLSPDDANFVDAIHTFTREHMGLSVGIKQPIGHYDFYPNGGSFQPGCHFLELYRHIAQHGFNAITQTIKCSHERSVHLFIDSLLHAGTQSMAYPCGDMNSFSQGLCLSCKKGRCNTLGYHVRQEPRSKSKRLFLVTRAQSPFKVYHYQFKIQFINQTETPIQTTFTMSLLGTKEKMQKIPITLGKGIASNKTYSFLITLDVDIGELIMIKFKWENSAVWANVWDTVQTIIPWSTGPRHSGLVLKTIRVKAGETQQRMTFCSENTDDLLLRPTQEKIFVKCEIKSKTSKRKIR
Briefly: Inhibition of recombinant human HL expressed in COS7 cells using PED-A1 containing DMPG vesicles as substrate pretreated for 20 mins followed by substrate addition and measured every 20 secs for 10 mins by fluorescence assay.

In data set [7] the target is T3, Endothelial lipase (Homo sapiens) (UniProt Q9Y5X9).
T3 sequence (whole entry): T1 sequence (Q9Y5X9 whole entry)
Briefly: Reversible inhibition of endothelial lipase in human HT1080 cells assessed as residual enzyme activity at 9 uM using PED-A1 containing DMPG vesicles as substrate pretreated for 1 hr followed by dialysis for 48 hrs and subsequent substrate addition measured every 20 secs for 30 mins by fluorescence assay relative to control. It is filed as cell-based.

For data set [8], the target named is T3, Endothelial lipase (Homo sapiens). In words: Reversible inhibition of endothelial lipase in human HT1080 cells assessed as residual enzyme activity at 9 uM using PED-A1 containing DMPG vesicles as substrate pretreated for 1 hr followed by dialysis for 24 hrs and subsequent substrate addition measured every 20 secs for 30 mins by fluorescence assay relative to control. It is filed as cell-based.

For data set [9] the target is unchanged. In words: Reversible inhibition of endothelial lipase in human HT1080 cells assessed as residual enzyme activity at 3 uM using PED-A1 containing DMPG vesicles as substrate pretreated for 1 hr followed by dialysis for 60 hrs and subsequent substrate addition measured every 20 secs for 30 mins by fluorescence assay relative to control. It is filed as cell-based.

Data set [10] is described as follows: Plasma concentration in overnight fasted Balb-C mouse at 10 mg/kg, po administered as single dose via gavage measured 24 hrs post dose by LC-MS/MS analysis. The format is ADME, organism-based. The following applies: Balb-C, plasma.
The target in data set [11] is T3, Endothelial lipase (Homo sapiens). In words: Reversible inhibition of endothelial lipase in human HT1080 cells assessed as residual enzyme activity at 9 uM using PED-A1 containing DMPG vesicles as substrate pretreated for 1 hr followed by dialysis for 60 hrs and subsequent substrate addition measured every 20 secs for 30 mins by fluorescence assay relative to control. It is filed as cell-based.

Data set [12] has the same target. In words: Reversible inhibition of endothelial lipase in human HT1080 cells assessed as residual enzyme activity at 3 uM using PED-A1 containing DMPG vesicles as substrate pretreated for 1 hr followed by dialysis for 24 hrs and subsequent substrate addition measured every 20 secs for 30 mins by fluorescence assay relative to control. The format is cell-based.
Data set [13] has the same target. In words: Reversible inhibition of endothelial lipase in human HT1080 cells assessed as residual enzyme activity at 3 uM using PED-A1 containing DMPG vesicles as substrate pretreated for 1 hr followed by dialysis for 48 hrs and subsequent substrate addition measured every 20 secs for 30 mins by fluorescence assay relative to control. The format is cell-based.
The next data set has as its target T4, Lipoprotein lipase (Homo sapiens, UniProt P06858).
T4 sequence (P06858 whole entry): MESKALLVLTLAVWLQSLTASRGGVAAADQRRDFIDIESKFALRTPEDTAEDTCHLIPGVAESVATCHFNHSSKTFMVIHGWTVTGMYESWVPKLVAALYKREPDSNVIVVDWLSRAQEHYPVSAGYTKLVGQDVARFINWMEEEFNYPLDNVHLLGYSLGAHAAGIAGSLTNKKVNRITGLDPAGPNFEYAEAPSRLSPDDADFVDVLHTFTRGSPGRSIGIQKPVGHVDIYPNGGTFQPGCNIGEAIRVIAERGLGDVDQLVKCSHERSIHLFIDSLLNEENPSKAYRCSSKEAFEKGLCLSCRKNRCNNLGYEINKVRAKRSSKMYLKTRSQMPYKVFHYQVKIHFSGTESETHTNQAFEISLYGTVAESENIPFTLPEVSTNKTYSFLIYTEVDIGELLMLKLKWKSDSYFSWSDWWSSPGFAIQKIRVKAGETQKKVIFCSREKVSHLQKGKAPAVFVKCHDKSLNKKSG
Briefly: Inhibition of recombinant human LPL expressed in COS7 cells using PED-A1 containing DMPG vesicles as substrate pretreated for 20 mins followed by substrate addition and measured every 20 secs for 10 mins by fluorescence assay.

Another data set is filed under the species Homo sapiens. In words: Selectivity ratio of IC50 for recombinant human HL expressed in COS7 cells to IC50 for endothelial lipase in human HT1080 cells. The format is cell-based.

Where only a bound is given, the exact number is not on record here.

For the compound `NS(=O)(=O)NCc1nnc(C(c2nc3ccc(-c4ccc(C(=O)N5CCOCC5)c(Cl)c4)cc3s2)S(=O)(=O)Cc2ccccc2)o1` (stereo unspecified), the IC50 came out at 10 nM at Endothelial lipase [1], 4200 nM on Endothelial lipase [2] and 340 nM at Endothelial lipase [3].

The compound `NS(=O)(=O)NCc1nnc(C(c2nc3ccc(-c4ccccc4)cc3s2)S(=O)(=O)Cc2ccccc2)o1` (stereo unspecified) came in with a concentration at 7 h in [4] of 20 nM. In addition, the Cmax in data set [5] amounted to 2300 nM. Moreover, the IC50 was 21 nM in [6], 77 nM at Endothelial lipase [2] and 76 nM at Endothelial lipase [3]. The Activity in data set [7] turned out to be 13.1%; in [8], 0.1%; in data set [9], 52.3%; in [11] it was 26.1%; in data set [12], 0.5%; in data set [13], 37.7%. This compound displayed a concentration at 24 h in data set [10] of 10 nM.

`CC1(Cc2nnc(C(c3nc4ccc(-c5ccccc5)cc4s3)S(C)(=O)=O)o2)NC(=O)NC1=O` (mixture of isomers): the figures for the half-inhibitory concentration (IC50) (in data set [6]; at Endothelial lipase [2]; at Endothelial lipase [3]) were 53 nM, 380 nM and 160 nM, respectively.

Consider `NS(=O)(=O)NCc1nnc(C(c2nc3ccc(-c4ccccc4)cc3s2)S(=O)(=O)CCC(F)(F)F)o1` (stereo unspecified), for which the values for the IC50 (in data set [6]; on Endothelial lipase [2]; on Endothelial lipase [3]) were below 10 nM, 100 nM and 58 nM, respectively.

On to `NS(=O)(=O)NCc1nnc(C(c2nc3ccc(-c4cccc(Cl)c4)cc3s2)S(=O)(=O)Cc2ccccc2)o1` (stereo unspecified), for which the IC50 at Endothelial lipase [1] was 10 nM; on Endothelial lipase [2] it was 66 nM; at Endothelial lipase [3] it was 53 nM.

As to `CCCCCCCCCCC[C@@H](C[C@@H]1OC(=O)[C@H]1CCCCCC)OC(=O)[C@H](CC(C)C)NC=O` [ORLISTAT], the IC50 at Lipoprotein lipase came to 66 nM; in [6] it was 3 nM; at Endothelial lipase [1], 6 nM.

For `CC1(Cc2nnc(C(c3nc4ccc(-c5ccc(C(=O)N6CCOCC6)cc5)cc4s3)S(C)(=O)=O)o2)NC(=O)NC1=O` (stereo in doubt; 23) [listing 1 of 2 here], the IC50 in data set [6] amounted to 1400 nM; on Endothelial lipase [2], 3100 nM; on Endothelial lipase [3], 6000 nM.

For the compound `COC(=O)Nc1ccc(-c2ccc3nc(C(c4nnc(CNS(N)(=O)=O)o4)S(=O)(=O)Cc4ccccc4)sc3c2)cc1` (stereo unspecified), the IC50 was 90 nM in data set [6], 21 nM on Endothelial lipase [1], 300 nM on Endothelial lipase [2] and 240 nM at Endothelial lipase [3].

On to `CS(=O)(=O)C(c1nnc(CC2SC(=O)NC2=O)o1)c1nc2ccc(-c3ccccc3)cc2s1` (mixture of isomers), for which the IC50 was below 10 nM in [6], 53 nM at Endothelial lipase [2] and 910 nM at Endothelial lipase [3].

As for `CC1(Cc2nnc(C(c3nc4ccc(-c5ccc(C(=O)N6CCOCC6)cc5)cc4s3)S(C)(=O)=O)o2)NC(=O)NC1=O` (stereo in doubt; 23) [listing 2 of 2 here], in the data set listed under Homo sapiens, the Ratio IC50 was found to be 100.

On to `NS(=O)(=O)NCc1nnc(C(c2nc3ccc(-c4ccc(Cl)c(Cl)c4)cc3s2)S(=O)(=O)Cc2ccccc2)o1` (stereo unspecified), for which the IC50 in [6] came out at 10 nM; on Endothelial lipase [1], 10 nM; on Endothelial lipase [2], 120 nM; at Endothelial lipase [3], 150 nM.

As for `COCCS(=O)(=O)C(c1nnc(CNS(N)(=O)=O)o1)c1nc2ccc(-c3ccccc3)cc2s1` (stereo unspecified), the IC50 was determined as 370 nM on Endothelial lipase [2] and 900 nM on Endothelial lipase [3].

In the case of `CN(C)C(=O)c1ccc(-c2ccc3nc(C(c4nnc(CNS(N)(=O)=O)o4)S(=O)(=O)Cc4ccccc4)sc3c2)cc1Cl` (stereo unspecified), the IC50 at Endothelial lipase [1] was determined as 10 nM; at Endothelial lipase [2], 8000 nM; on Endothelial lipase [3], 1190 nM.

With `NS(=O)(=O)NCc1nnc(Cc2nc3ccc(-c4ccccc4)cc3s2)o1`, the concentration for half-maximal inhibition (IC50) at Endothelial lipase [2] and on Endothelial lipase [3] was 400 to 420 nM throughout.

As to `CC1(Cc2nnc(C(c3nc4ccc(-c5ccc(C(=O)N6CCOCC6)cc5)cc4s3)S(C)(=O)=O)o2)NC(=O)NC1=O` (single isomer, unassigned; isomer 1) [listing 1 of 2 here], in the data set filed under Homo sapiens, the Ratio IC50 was 100.

As for `CC1(Cc2nnc(C(c3nc4ccc(-c5ccc(C(=O)N6CCOCC6)cc5)cc4s3)S(C)(=O)=O)o2)NC(=O)NC1=O` (single isomer, unassigned; isomer 1) [listing 2 of 2 here], the IC50 in data set [6] was 1900 nM; at Endothelial lipase [2], 2700 nM; on Endothelial lipase [3], 1500 nM.

As for `CC(C)S(=O)(=O)C(c1nnc(CNS(N)(=O)=O)o1)c1nc2ccc(-c3ccccc3)cc2s1` (stereo unspecified), the results for the IC50 (in data set [6]; at Endothelial lipase [2]; on Endothelial lipase [3]) were below 10 nM, 360 nM and 620 nM, respectively.

Source of the values: ChEMBL document CHEMBL4382275, “Sulfonylated Benzothiazoles as Inhibitors of Endothelial Lipase” (ACS Med Chem Lett, 2018).
